From patent US20140356383A1, “ADMINISTRATION OF AN ANTI-GCC ANTIBODY-DRUG CONJUGATE AND A DNA DAMAGING AGENT IN THE TREATMENT OF CANCER” (priority 2013, published 2014)

Tested on: PHTX-9c primary human colon tumor xenograft
Test: Single agent antitumor activity in PHTX-9c (PHTX-09c) primary human colon tumor xenograft
Procedure: Female CB-17 SCID mice (eight weeks old) were inoculated subcutaneously (SC) into the flank with PHTX-9c tumor fragments (2 mm×2 mm). Tumor growth was monitored twice per week using vernier calipers and the mean tumor volume was calculated using the formula (0.5×[length×width^2]). When the mean tumor volume reached approximately 150 mm^3 (Study A) or 160 mm^3 (Study B), animals were randomized into treatment groups (n=10/group for Study A and n=9/group for Study B).
Doses were administered on Days 1, 8, and 15 for the QW schedule and Days 1, 4, 8, 11, 15, and 18 for the BIW schedule. […] The equivalent dose of linker+MMAE is 4% of the 5F9-vcMMAE dose. These calculations are based on a mean 3.9 MMAE molecules per antibody and a free antibody molecular weight of 150 kD. Actual antibody molecular weight will vary slightly due to degree of glycosylation.
Tumor volume and body weight were measured twice weekly and were continued beyond the treatment period to measure regrowth kinetics, as evidenced by tumor growth delay (TGD). Tumor volume measurements were continued until tumor volume reached 10% of the body weight in a single mouse within a treatment group, at which time the group was terminated. The percentage of tumor growth inhibition (TGI) ([mean tumor volume of the control group—mean tumor volume of a treated group]/mean tumor volume of the control group; a T/C ratio) was determined on Day 20. The T/C ratios across a treatment group were compared to the T/C ratios of the control group using a two-tailed Welch's t-test.
The differences in the tumor growth trends over time between pairs of treatment groups were assessed using linear mixed effects regression models. These models account for the fact that each animal was measured at multiple time points. A separate model was fit for each comparison, and the areas under the curve (AUC) for each treatment group were calculated using the predicted values from the model. The percent decrease in AUC (dAUC) relative to the reference group was then calculated.
The 5F9 vcMMAE immunoconjugate was tested for single agent anti-tumor activity in the four primary human tumor xengraft models at varying concentrations in order to explore whether GCC expression levels played a role in tumor sensitivity. […] Free-MMAE was also used as a negative control.

[1] = Study A, 0.938 mg/kg IV QW × 3 doses
[2] = Study A, 1.875 mg/kg IV QW × 3 doses
[3] = Study A, 3.75 mg/kg IV QW × 3 doses
[4] = Study A, 7.5 mg/kg IV QW × 3 doses
[5] = Study B, 0.938 mg/kg IV QW × 3 doses
[6] = Study B, 1.875 mg/kg IV QW × 3 doses
[7] = Study B, 3.75 mg/kg IV BIW × 6 doses
[8] = Study B, 3.75 mg/kg IV QW × 3 doses
[9] = Study B, 7.5 mg/kg IV QW × 3 doses
[10] = Study B, 10.0 mg/kg IV QW × 3 doses

“5F9 vcMMAE: 5F9 mAb conjugated to MMAE using a vc (Val-Cit) linker; average drug loading about 3.6” was tested, and the “day tumors start to re-grow” value (PHTX-09c, 7.5 mg/kg and 10 mg/kg) was about 40 days, the “anti-tumor activity maintained post-dosing” value (PHTX-09c, 7.5 mg/kg and 10 mg/kg, last dose on day 15) was 3 weeks and the “single agent anti-tumor activity” value (PHTX-09c, 1.875-10 mg/kg I.V. QW×3 weeks) was “strong”. The T/C (PHTX-09c, dose 0.938-10 mg/kg, QW, T/C=volume of tumor/control) was 0.09, the “BW change (mean maximum percent)” value [1] was 9.0% and the “TGD” value [1] was 3.3 days. The TGI (Study A, 0.938 mg/kg IV QW × 3 doses, Day 20) was 21.4 (p > 0.05) %, the “BW change (mean maximum percent)” value [2] was 10.6% and the “TGD” value [2] was 8.2 days. The TGI (Study A, 1.875 mg/kg IV QW × 3 doses, Day 20) was 44.7 (p > 0.001) %, the “BW change (mean maximum percent)” value [3] was 9.0% and the “TGD” value [3] was 17.8 days. The TGI (Study A, 3.75 mg/kg IV QW × 3 doses, Day 20) was 65.3 (p > 0.001) %, the “BW change (mean maximum percent)” value [4] was 7.5% and the “days until first tumor >1000 mm^3” value [4] was “(>58 days”. The TGI (Study A, 7.5 mg/kg IV QW × 3 doses, Day 20) was 84.1 (p > 0.001) %, the “BW change (mean maximum percent)” value [5] was −2.3% and the “TGD” value [5] was 3.8 days. The TGI (Study B, 0.938 mg/kg IV QW × 3 doses, Day 20) was 20.7 (p > 0.001) %, the “BW change (mean maximum percent)” value [6] was 5.6% and the “TGD” value [6] was 6.6 days. The TGI (Study B, 1.875 mg/kg IV QW × 3 doses, Day 20) was 41.3 (p > 0.001) %, the “BW change (mean maximum percent)” value [7] was −1.8% and the “TGD” value [7] was 31.9 days. For the same substance, the TGI (Study B, 3.75 mg/kg IV BIW × 6 doses, Day 20, 3.75 mg/kg) was 84.9 (p > 0.001) %, the “BW change (mean maximum percent)” value [8] was −2.2% and the “TGD” value [8] was 16 days. For the same substance, the TGI (Study B, 3.75 mg/kg IV QW × 3 doses, Day 20) was 65.7 (p > 0.001) %, the “BW change (mean maximum percent)” value [9] was 6.5% and the “days until first tumor >1000 mm^3” value [9] was “(>47 days”. For the same substance, the TGI (Study B, 7.5 mg/kg IV QW × 3 doses, Day 20) was 84.3 (p > 0.001) %, the “BW change (mean maximum percent)” value [10] was 7.2% and the “days until first tumor >1000 mm^3” value [10] was “(>56 days”. For the same substance, the TGI (Study B, 10.0 mg/kg IV QW × 3 doses, Day 20, 10 mg/kg) was 91.2 (p > 0.001) %, the “greatest maximum body weight loss during treatment period” value (Study B, day 7, 0.18 mg/kg MMAE group and 0.938 mg/kg 5F9-vcMMAE group) was 2.3% and the TGI (both studies (A and B), 0.938 mg/kg IV QW) was 20.7-21.4%. For the same substance, the TGI (both studies (A and B), 1.875 mg/kg IV QW) was 41.3-44.7%, the TGI (both studies (A and B), 3.75 mg/kg IV QW) was 65.3-65.7% and the TGI (both studies (A and B), 7.5 mg/kg IV QW) was 84.1-84.3%.
